Measured values taken from patent publication US20070149483A1, “Methods and compounds for modulating triglyceride and vldl secretion” (priority 2003, published 2007).
Marks after values point to notes of the source that are not given here.

Columns and labels:
Type in all cases: cell-based, rat
[1] = tested on: McA-RH7777 cells stably expressing human apoB100; test: Synthesis and secretion of [3H]glycerol-labelled TG and PC
Protocol: (§1) Cell Culture and Fatty Acid Treatments—Transfected McA-RH7777 cells stably expressing human apoB100 (McLeod et al., 1994, J. Biol. Chem. 269, 2852-2862) were cultured in Dulbecco's modified Eagle's medium (DMEM) containing 10% fetal bovine serum (FBS), 10% horse serum and 200 μg/ml G418. Routinely, the cells were incubated with 0.4 mM fatty acids for 16-18 h in the presence of 20% FBS prior to experiments.
Other Assays—The TG transfer activity of MTP was determined according to published method (Wetterau et al., 1992, Science 258, 999-1001) with modifications (Wang et al., 1999). The phosphatidate phosphohydrolase activity was determined by an established method (Jamal et al., 1991, J. Biol. Chem. 266, 2988-2996). Lipid extraction and analysis by TLC was performed as previously described (Tran et al., 2000). Protein was determined using the BCA™ protein assay kit (Pierce).

[2] = tested on: McA-RH7777 cells stably expressing human apoB100; test: Tandem mass spectrometry of PC and PE in membranes of subcellular organelles; settings: for PC content, Total / PC content, membranes of ER / PC content, membranes of cis/medial Golgi / PC content, membranes of distal Golgi / PE content, Total / PE content, membranes of ER / PE content, membranes of cis/medial Golgi / PE content, membranes of distal Golgi: control cells set as 100
Source text: Subcellular Fractionation—Three subcellular fractions (i.e., ER, fractions 1 through 3; cis/medial Golgi, fractions 4 through 8; distal Golgi, fractions 9 through 15) were obtained from the cell lysates using Nycodenz gradient centrifugation (Hammond and Helenius, 1994, J. Cell Biol. 126, 41-52; Rickwood et al., 1982, Anal. Biochem. 123, 23-31) of the post-nuclear supernatant as previously described (Tran et al., 2002). […] The membrane and lumen preparations from ER (Nycodenz fractions 1 through 3), cis/medial Golgi (fractions 4 through 8), and distal Golgi (fractions 9 through 15) were derived from cells pooled from eight 100-mm dishes. Lipids were extracted from the samples with chloroform/methanol/acetic acid/saturated NaCl/H2O (4:2:0.1:1:2, by volume) in the presence of 230 pmol dimirystoyl (14:0-14:0) PC and 110 pmol dipalmitoyl (16:0-16:0) PE as internal standards. Aliquots of lipid extracts were applied to tandem mass spectrometry, and the molecular species (i.e. fatty acid composition) of PC and PE was determined by daughter ion analysis in the negative ion mode as previously described (Tran et al., 2002; DeLong et al., 1999, J. Biol. Chem. 274, 29683-29688). The integrated area under the peak of each molecular species was quantified by comparing with those of internal standards.

[3] = tested on: McA-RH7777 cells stably expressing human apoB100; test: Pulse-chase (1 h pulse, up to 3 h chase) of apoB100 and apoA-I secretion efficiency
Protocol: The cells were then incubated with chase medium for 15, 30 and 45 min. At the end of each chase time, the medium was collected and subjected to cumulative rate flotation centrifugation (Wang et al., 1999) to resolve apoB100-VLDL1 (Sf>100) and apoB100-VLDL2 (Sf 20-100) from other lipoproteins (i.e. IDL, LDL and HDL). The ^35S-apoB100 in each fraction was recovered by immunoprecipitation. Also, at the end of each chase time, the radiolabeled cells were harvested in 2 ml of ice-cold homogenization buffer (10 mM Tris-HCl, pH 7.4, 250 mM sucrose, 5 mM EDTA, and serine/cysteine protease inhibitor mixture), mixed with two 100-mm dishes of unlabeled cells, homogenized by passing ten times through a ball-bearing homogenizer, and subjected to subcellular fractionation and carbonate-treatment as described below.
Oleate and EPA were present in both pulse and chase media. The [^35S]-apoB100 from total cell lysates (FIG. 2A) or conditioned media (FIG. 2B) was immunoprecipitated, resolved by SDS-PAGE, and visualized by fluorography. Radioactivity associated with [^35S]-apoB100 was quantified. As shown in the top panels of FIG. 2A to 2B, the data is expressed as absolute amount of radioactivity associated with [^35S]-apoB100 at the end of 1-h pulse. As shown in the […] panels of FIG. 2A to 2B, the data is expressed as percent of the initial counts associated with ^35S-apoB100 at the end of 1-h pulse. […] The experiments were repeated and similar results were obtained.
It has been shown previously that VLDL, particles carry >80% of total TG but <10% of total apoB100 secreted from oleate-treated McA-RH777 cells (Wang et al., 1999, J. Biol. Chem. 274: 27793-27800). Thus the possibility was considered that the above pulse (30-min)-chase(60 min) experiment might fail to detect decreased secretion and increased post-translational degradation of apoB100 because n-3 fatty acid treatment was reported to selectively decrease apoB100 in VLDL fractions (Fisher and Ginsberg, 2002, J. Biol. Chem. 277: 17377-17380). In the next set of experiments, the pulse-labelling period was extended to 1 h to maximize [^35S]-labelling of apoB100 and to allow examination of potential posttranslational degradation. […] The high labelling of apoB100 at the end of 1-h pulse may reflect increased intracellular accumulation of newly synthesized apoB100 and/or impaired secretion. […] The secretion efficiency, which measures the proportion of total metabolically labelled [^35S]-apoB100 secreted at the end of chase was decreased from 60% to 40% in EPA-treated cells compared to OA-treated cells (FIG. 2B, bottom). […]

[4] = tested on: McA-RH7777 cells stably expressing human apoB100; test: Competitive ELISA of apoB100 protein in medium; settings: after 16-h incubation, n=3
Protocol: as §1
Competitive Enzyme Linked Immunosorbent Assay (ELISA)—The ELISA plates were coated with human LDL (1 mg/ml in PBS, 16 h, 4° C.), blocked with skim milk (5% in PBS, 2 h, 37° C.), and washed three times with PBS containing 0.02% Tween-20. The plates were incubated with apoB monoclonal antibody 1D1 (1:64,000, 16 h, 4° C.) in the presence of serial diluted concentrations of human LDL or medium samples. The plates were washed and incubated with horseradish peroxidase-linked anti-mouse IgG antibody (1:10,000, 2 h, 37° C.), followed by addition of the liquid substrate system for ELISA (3,3′,5,5′-tetramethyl-benzidine). The reaction was quantified colorimetrically by spectrophotometer reading at OD665.

[5] = end of 2-h labelling with [^3H]glycerol, means ± SD of triplicate

Compound	[^3H]PC Cell [1, 5] [cpm × 10^−3/dish]	[^3H]PC Medium [1, 5] [cpm × 10^−3/dish]	[^3H]TG Medium [1, 5]	PC content, Total [2]	PC content, membranes of ER [2]	PC content, membranes of cis/medial Golgi [2]	PC content, membranes of distal Golgi [2]	PE content, Total [2]	PE content, membranes of ER [2]	PE content, membranes of cis/medial Golgi [2]	PE content, membranes of distal Golgi [2]	increase in PE mass in the ER ([2]; vs untreated control) [%]	increase in total PE mass ([2]; vs untreated control) [%]	amount of [^35S] incorporated into apoB100 at the end of 1-h pulse [3]	amount of apoB100 protein accumulated in the medium [4] [µg/mL]	other results
CC/C=C\C/C=C\C/C=C\C/C=C\C/C=C\CCCC(=O)O [EPA, eicosapentaenoic acid]	15.80 ± 0.44	3.86 ± 0.57	7.18 ± 0.96^b cpm × 10^−3/dish	(92)* % of control	(108)* % of control	(70)* % of control	(94)* % of control	(185)* % of control	(216) % of control	(127) % of control	(270)* % of control	116	85	9.43×10^4 cpm/dish	2.5 ± 0.43	[^3H]TG Cell [1, 5]: 40.84 ± 0.70^b cpm × 10^−3/dish; reduction in secretion of [^3H]glycerol-labelled TG ([1]; vs oleate-treated cells): 50%; increase in PE mass in the distal Golgi ([2]; vs untreated control): 170%; [^35S] incorporated into apoB100 at the end of 1-h pulse, greater than in oleate-treated cells [3]: ~40%; secretion efficiency (proportion of total metabolically labelled [^35S]-apoB100 secreted at the end of chase) ([3]; 3-h chase): 40%
CCCCCCCC/C=C\CCCCCCCC(=O)O [Oleate, oleic acid]	15.00 ± 0.23	4.10 ± 0.12	12.87 ± 1.59 cpm × 10^−3/dish	(156) % of control	(182) % of control	(107) % of control	(173) % of control	(129) % of control	(172) % of control	(112) % of control	(106) % of control	72	29	6.40×10^4 cpm/dish	2.74 ± 0.48	increase in PC mass in the ER ([2]; vs untreated control): 82%; increase in PC mass in the distal Golgi ([2]; vs untreated control): 73%; increase in total PC mass associated with intracellular microsomes ([2]; vs untreated control): 56%
